Laboratory results: patent US20110071150A1 (priority 2009, published 2011)

Test system: Jurkat IL-2 Production
Test: Jurkat IL-2 Production Assay
Format: cell-based
Details: Homo sapiens, Jurkat cell (ATCC), 18-20 h incubation, PHA 5 μg/mL with 1% FBS, or PMA/Ionomycin with 30% FBS (table does not say which)
Protocol: Jurkat IL-2 Production Assay
Cell: Jurkat cell (ATCC) was grown in RPMI 1640 with 10% FBS and 1% penicillin/streptomycin. The cell density was kept at 1.2-1.8×10^6/mL in culture flask before seeding into culture plate, and the cell density in the plate was 0.5×10^6/[…]/well.
Culture media: RPMI 1640 with 1% FBS or 30% FBS for high serum assay.
Test compound: serial dilution was done in 100% DMSO, and intermediate dilution was done with RPMI 1640 medium with 1% FBS. The DMSO final concentration in culture well was 0.25%.
Stimulant: PHA (Sigma#L9017-10MG) was used for the assay with 1% FBS in culture medium, and added after 10 minutes exposure of cell to compound/DMSO. The PHA final concentration in culture well was 5 μg/mL. PMA (Sigma# P-8139 5MG)/Ionomycin (Sigma# 10634-5MG) was used for the assay with 30% FBS in culture medium, and added at same time point as the 1% FBS culture assay. The final concentration of PMA was 50 ng/mL, and Ionomycin final concentration was 500 ng/mL.
Incubation: at 37° C. with 5% CO2 and 95% humidity for 18 h˜20 h.
IC50: IC50 was calculated with the data analysis software XLfit4, General Pharmacology model 251.

IC50 | SMILES
741 nM | Cn1nc(C(F)(F)F)cc1-c1ccc2[nH]c(-c3cc(Cl)ccc3F)cc2c1 [Example 33, 2-(5-Chloro-2-fluoro-phenyl)-5-(2-methyl-5-trifluoromethyl-2H-pyrazol-3-yl)-1H-indole]
184 nM | Cn1nc(C(F)(F)F)cc1-c1ccc2[nH]c(-c3ccc(Cl)cc3Cl)cc2c1 [Example 34, 2-(2,4-Dichloro-phenyl)-5-(2-methyl-5-trifluoromethyl-2H-pyrazol-3-yl)-1H-indole]
116 nM | Cn1nc(C(F)(F)F)cc1-c1ccc2[nH]c(-c3ccc(F)cc3Cl)cc2c1 [Example 35, 2-(2-Chloro-4-fluoro-phenyl)-5-(2-methyl-5-trifluoromethyl-2H-pyrazol-3-yl)-1H-indole]
131 nM | Cn1nc(C(F)(F)F)cc1-c1ccc2[nH]c(-c3ccncc3Cl)cc2c1 [Example 36, 2-(3-Chloro-pyridin-4-yl)-5-(2-methyl-5-trifluoromethyl-2H-pyrazol-3-yl)-1H-indole]
120 nM | Cc1cnccc1-c1cc2cc(-c3cc(C(F)(F)F)nn3C)ccc2[nH]1 [Example 37, 2-(3-Methyl-pyridin-4-yl)-5-(2-methyl-5-trifluoromethyl-2H-pyrazol-3-yl)-1H-indole]
83 nM | COc1ccc(-c2cc3cc(-c4cc(C(F)(F)F)nn4C)ccc3[nH]2)c(C)n1 [Example 38, 2-(6-Methoxy-2-methyl-pyridin-3-yl)-5-(2-methyl-5-trifluoromethyl-2H-pyrazol-3-yl)-1H-indole]
148 nM | COC(=O)c1ccc(-c2cc3cc(-c4cc(C(F)(F)F)nn4C)ccc3[nH]2)c(C)c1 [Example 39, 3-Methyl-4-[5-(2-methyl-5-trifluoromethyl-2H-pyrazol-3-yl)-1H-indol-2-yl]-benzoic acid methyl ester]
728 nM | Cc1cc(C(=O)O)ccc1-c1cc2cc(-c3cc(C(F)(F)F)nn3C)ccc2[nH]1 [Example 40]
486 nM | Cn1nc(C(F)(F)F)cc1-c1ccc2[nH]c(-c3cccc(Cl)c3Cl)cc2c1 [Example 41, 2-(2,3-Dichloro-phenyl)-5-(2-methyl-5-trifluoromethyl-2H-pyrazol-3-yl)-1H-indole]
204 nM | Cn1nc(C(F)(F)F)cc1-c1ccc2[nH]c(-c3cc(F)ccc3Cl)cc2c1 [Example 42, 2-(2-Chloro-5-fluoro-phenyl)-5-(2-methyl-5-trifluoromethyl-2H-pyrazol-3-yl)-1H-indole]
87 nM | COc1nccc(-c2cc3cc(-c4cc(C(F)(F)F)nn4C)ccc3[nH]2)c1Cl [Example 43, 2-(3-Chloro-2-methoxy-pyridin-4-yl)-5-(2-methyl-5-trifluoromethyl-2H-pyrazol-3-yl)-1H-indole]
169 nM | Cn1nc(C(F)(F)F)cc1-c1ccc2[nH]c(-c3ccncc3F)cc2c1 [Example 44, 2-(3-Fluoro-pyridin-4-yl)-5-(2-methyl-5-trifluoromethyl-2H-pyrazol-3-yl)-1H-indole]
375 nM | Cc1noc(C)c1-c1cc2cc(-c3cc(C(F)(F)F)nn3C)ccc2[nH]1 [Example 45, 2-(3,5-Dimethyl-isoxazol-4-yl)-5-(2-methyl-5-trifluoromethyl-2H-pyrazol-3-yl)-1H-indole]
44 nM | CCn1nc(C(F)(F)F)cc1-c1ccc2[nH]c(-c3c(F)cccc3F)cc2c1 [Example 46, 2-(2,6-Difluoro-phenyl)-5-(2-ethyl-5-trifluoromethyl-2H-pyrazol-3-yl)-1H-indole]
40 nM | CCn1nc(C(F)(F)F)cc1-c1ccc2[nH]c(-c3c(F)cccc3Cl)cc2c1 [Example 47, 2-(2-Chloro-6-fluoro-phenyl)-5-(2-ethyl-5-trifluoromethyl-2H-pyrazol-3-yl)-1H-indole]
12 nM | Cn1nc(C(F)(F)F)cc1-c1ccc2[nH]c(-c3c(F)cccc3Cl)cc2c1 [Example 48, 2-(2-Chloro-6-fluoro-phenyl)-5-(2-methyl-5-trifluoromethyl-2H-pyrazol-3-yl)-1H-indole]
13 nM | CCn1nc(-c2cccnc2)cc1-c1ccc2[nH]c(-c3c(F)cccc3Cl)cc2c1 [Example 49, 2-(2-Chloro-6-fluoro-phenyl)-5-(2-ethyl-5-pyridin-3-yl-2H-pyrazol-3-yl)-1H-indole]
13 nM | Cc1sc(-c2cccnc2)nc1-c1ccc2[nH]c(-c3c(F)cccc3Cl)cc2c1 [Example 50, 2-(2-Chloro-6-fluoro-phenyl)-5-(5-methyl-2-pyridin-3-yl-thiazol-4-yl)-1H-indole]
524 nM | Cn1nc(-c2ccncc2)cc1-c1ccc2[nH]c(-c3c(F)cccc3Cl)cc2c1 [Example 51, 2-(2-Chloro-6-fluoro-phenyl)-5-(2-methyl-5-pyridin-4-yl-2H-pyrazol-3-yl)-1H-indole]
62 nM | Cc1cc(-c2ncco2)ccc1-c1ccc2[nH]c(-c3c(F)cccc3Cl)cc2c1 [Example 52, 2-(2-Chloro-6-fluoro-phenyl)-5-(2-methyl-4-oxazol-2-yl-phenyl)-1H-indole]

IC50 | SMILES
14 nM | COC(=O)c1ccc(-c2ccc3[nH]c(-c4c(F)cccc4Cl)cc3c2)c(C)c1 [Example 53, 4-[2-(2-Chloro-6-fluoro-phenyl)-1H-indol-5-yl]-3-methyl-benzoic acid methyl ester]
33 nM | COc1ccc(-c2ccc3[nH]c(-c4c(F)cccc4Cl)cc3c2)c(OC)c1 [Example 54, 2-(2-chloro-6-fluoro-phenyl)-5-(2,4-dimethoxy-phenyl)-1H-indole]
79 nM | Fc1cccc(Cl)c1-c1cc2cc(-c3ccc(C(F)(F)F)cc3C(F)(F)F)ccc2[nH]1 [Example 55, 5-(2,4-Bis-trifluoromethyl-phenyl)-2-(2-chloro-6-fluoro-phenyl)-1H-indole]
132 nM | Fc1cccc(Cl)c1-c1cc2cc(-c3ccc(C(F)(F)F)cc3Cl)ccc2[nH]1 [Example 56, 2-(2-Chloro-6-fluoro-phenyl)-5-(2-chloro-4-trifluoromethyl-phenyl)-1H-indole]
301 nM | Cc1sc(-c2ccccn2)nc1-c1ccc2[nH]c(-c3ccc(F)cc3Cl)cc2c1 [Example 57, 2-(2-Chloro-4-fluoro-phenyl)-5-(5-methyl-2-pyridin-2-yl-thiazol-4-yl)-1H-indole]
689 nM | Cc1sc(-c2ccccn2)nc1-c1ccc2[nH]c(-c3cc(F)ccc3Cl)cc2c1 [Example 58, 2-(2-Chloro-5-fluoro-phenyl)-5-(5-methyl-2-pyridin-2-yl-thiazol-4-yl)-1H-indole]
105 nM | Cn1nc(C(F)(F)F)cc1-c1ccc2[nH]c(-c3ccccc3Cl)cc2c1 [Example 59, 2-(2-Chloro-phenyl)-5-(2-methyl-5-trifluoromethyl-2H-pyrazol-3-yl)-1H-indole]
140 nM | Cc1ccccc1-c1cc2cc(-c3cc(C(F)(F)F)nn3C)ccc2[nH]1 [Example 60, 5-(2-Methyl-5-trifluoromethyl-2H-pyrazol-3-yl)-2-o-tolyl-1H-indole]
848 nM | Cn1nc(C2CC2)cc1-c1ccc2[nH]c(-c3ccccc3Cl)cc2c1 [Example 61, 2-(2-Chloro-phenyl)-5-(5-cyclopropyl-2-methyl-2H-pyrazol-3-yl)-1H-indole]
964 nM | Cc1ccccc1-c1cc2cc(-c3cc(C4CC4)nn3C)ccc2[nH]1 [Example 62, 5-(5-Cyclopropyl-2-methyl-2H-pyrazol-3-yl)-2-o-tolyl-1H-indole]
368 nM | Cn1nc(C2CC2)cc1-c1ccc2[nH]c(-c3c(F)cccc3F)cc2c1 [Example 63, 5-(5-Cyclopropyl-2-methyl-2H-pyrazol-3-yl)-2-(2,6-difluoro-phenyl)-1H-indole]
81 nM | Cc1sc(-c2cccnc2)nc1-c1ccc2[nH]c(-c3ccncc3F)cc2c1 [Example 64, 2-(3-Fluoro-pyridin-4-yl)-5-(5-methyl-2-pyridin-3-yl-thiazol-4-yl)-1H-indole]
71 nM | COC(=O)c1ccc(-c2cc3cc(-c4nc(-c5cccnc5)sc4C)ccc3[nH]2)c(C)c1 [Example 65, Methyl-4-[5-(5-methyl-2-pyridin-3-yl-thiazol-4-yl)-1H-indol-2-yl]-benzoic acid methyl ester]
33 nM | COc1cc(F)c(-c2cc3cc(-c4nc(-c5cccnc5)sc4C)ccc3[nH]2)c(F)c1 [Example 66, 2-(2,6-Difluoro-4-methoxy-phenyl)-5-(5-methyl-2-pyridin-3-yl-thiazol-4-yl)-1H-indole]
63 nM | Cc1sc(-c2cccnc2)nc1-c1ccc2[nH]c(-c3ccc(F)cc3Cl)cc2c1 [Example 67, 2-(2-Chloro-4-fluoro-phenyl)-5-(5-methyl-2-pyridin-3-yl-thiazol-4-yl)-1H-indole]
152 nM | Cc1sc(-c2cccnc2)nc1-c1ccc2[nH]c(-c3cncnc3C(C)C)cc2c1 [Example 68, 2-(4-Isopropyl-pyrimidin-5-yl)-5-(5-methyl-2-pyridin-3-yl-thiazol-4-yl)-1H-indole]
949 nM | Cc1sc(C(C)C)nc1-c1ccc2[nH]c(-c3ccccc3Cl)cc2c1 [Example 69, 2-(2-Chloro-phenyl)-5-(2-isopropyl-5-methyl-thiazol-4-yl)-1H-indole]
356 nM | Cc1sc(C(C)C)nc1-c1ccc2[nH]c(-c3c(F)cccc3F)cc2c1 [Example 70, 2-(2,6-Difluoro-phenyl)-5-(2-isopropyl-5-methyl-thiazol-4-yl)-1H-indole]
584 nM | Cc1sc(C2CC2)nc1-c1ccc2[nH]c(-c3ccccc3Cl)cc2c1 [Example 71]
